Patent publication US20140275282A1, “Treating osteopenia and related disorders with geranylgeranyl acetone and derivatives thereof” (COYOTE PHARMACEUTICALS, INC., priority 2013, published 2014)

System: osteoclast-mediated bone resorption
Assay: Inhibition of osteoclast function in vivo by monitoring bone resorption in young growing mice
Conditions: young growing mice aged 3-4 weeks, subcutaneous bid for 14 days (5 mg/kg/day)
Experimental: GGA and derivatives can be tested for their ability to modulate osteoclast function by administering to animals and monitoring bone resorption. One model is to determine the effects on bone resorption of young growing mice as previously described (Schenk et al., Calcif. Tissues Int 38:342-349, 1986; Simonet et al., Cell 89, 308-319, 1997). Young growing mice aged 3-4 weeks, weight range 9.2-15.7 g are divided into groups of ten mice per group. These mice are injected subcutaneously with saline or test compounds bid for 14 days (5 mg/kg/day). The mice are then radiographed before treatment, at day 7 and on day 14. The mice were sacrificed 24 hours after the final injection. The right femur is then removed, fixed in zinc formalin, decalcified in formic acid and embedded in paraffin. Sections are cut through the mid region of the distal femoral metaphysis and the femoral shaft. Bone density, by histomorphometry, is determined in six adjacent regions extending from the metaphyseal limit of the growth plate, through the primary and secondary spongiosa and into the femoral diaphysis (shaft). […] This is a region where bone is rapidly removed by osteoclast-mediated bone resorption in mice. In these rapidly growing young mice, the increase in bone in this region observed with treatment is consistent with an inhibition of bone resorption.

For `CC(=O)CCC=C(C)CCC=C(C)CCC=C(C)CCC=C(C)C` [GGA, Geranylgeranyl acetone], the “Radiographic changes: zone of bone density in the spongiosa associated with the growth plates, relative to controls” value (after seven days of treatment) was “increased bone density” and the “Histological changes: bone density (histomorphometry) in distal femoral metaphysis, regions 1.1 to 2.65 mm from the growth plate” value (right femur removed 24 hours after final injection) was “increased bone density”.
